Results as given in patent US12448388B2, “PRMT5 inhibitors and uses thereof” (Gilead Sciences, Inc., priority 2023, dated 2025).

Test system: HCT116 MTAP-deleted cell lines
Assay: Cell viability assay (CellTiter-Glo, 7 days), HCT116 MTAP-deleted
Type: cell-based
Conditions: Homo sapiens, HCT-116; cell viability, HCT116 MTAP-deleted; class symbols; read-out: CC50
Protocol: Control compounds were analyzed in parallel each time for quality control. In Brief, on Day -1, a serial dilution of stock compounds in DMSO was performed using BioMek liquid handlers and dispensed using Echo acoustic dispenser into 384 well plates. Both tool compounds and sample compounds were spotted in the same plate for a dose response of PRMT5 inhibitors. Compound plates were stored as frozen until the cells were ready for seeding. […] After equilibrating the plate in room temperature, the cells were incubated for 7 days inside the sealed incubator set at 37° C. with 90% humidity and 5% CO2. On Day 7, the viability of cells was measured using a CTG assay kit (CellTitre-Glo;Promega cat no. G7573). Shortly, 40 μl per well of luminescent cell viability assay reagent were dispensed using EL460 liquid dispenser 5 μl cassette. CTG luminescence signal was measured using an EnVision plate reader (PerkinElmer) in accordance with manufacturer's instruction. […] Selectivity with * is artificially high due to limited solubility of the compound hampering accurate measurement of WT CC50.

Row | Compound | CC50
1 | CC1(C)C[C@@H]2Oc3cc(C(F)(F)F)ccc3[C@@H]2N(C(=O)c2cc3c(cc2F)nc(N)c2cncn23)C1 (racemic) [Ff-257, Rac-(4-amino-7-fluoroimidazo[1,5-a]quinoxalin-8-yl)((4aR,9bR)-3,3-dimethyl-7-(trifluoromethyl)-3,4,4a,9b-tetrahydrobenzofuro[3,2-b]pyridin-1(2H)-yl)methanone] | < 100 nM
2 | CC1(C)C[C@@H]2Oc3cc(C(F)(F)F)ccc3[C@@H]2N(C(=O)c2cc3c(cn2)nc(N)c2cncn23)C1 (racemic) [Ff-258, Rac-(4-aminoimidazo[1,5-a]pyrido[3,4-e]pyrazin-8-yl)((4aR,9bR)-3,3-dimethyl-7-(trifluoromethyl)-3,4,4a,9b-tetrahydrobenzofuro[3,2-b]pyridin-1(2H)-yl)methanone] | < 100 nM
3 | CC1(C)C[C@@H]2Oc3cc(OC(F)(F)F)ccc3[C@@H]2N(C(=O)c2cc3c(cn2)nc(N)c2cncn23)C1 (racemic) [Ff-262, Rac-(4-aminoimidazo[1,5-a]pyrido[3,4-e]pyrazin-8-yl)((4aS,9bS)-3,3-dimethyl-7-(trifluoromethoxy)-3,4,4a,9b-tetrahydrobenzofuro[3,2-b]pyridin-1(2H)-yl)methanone] | 100 to 1000 nM
4 | C[C@H]1OC[C@@H](N(C)C(=O)c2cc3c(cc2F)nc(N)c2cncn23)c2ccc(C(F)(F)F)cc21 (racemic) [Ff-283, Rac-4-amino-7-fluoro-N-methyl-N-((1R,4S)-1-methyl-7-(trifluoromethyl)isochroman-4-yl)imidazo[1,5-a]quinoxaline-8-carboxamide] | < 100 nM
5 | C[C@H]1OC[C@@H](N(C)C(=O)c2cc3c(cc2Cl)nc(N)c2cncn23)c2ccc(C(F)(F)F)cc21 (racemic) [Ff-284, Rac-4-amino-7-chloro-N-methyl-N-((1R,4S)-1-methyl-7-(trifluoromethyl)isochroman-4-yl)imidazo[1,5-a]quinoxaline-8-carboxamide] | < 100 nM
6 | Nc1nc2cc(F)c(C(=O)N3CCC[C@@H]4OCc5cc(OC(F)F)ccc5[C@@H]43)cc2n2cncc12 (racemic) [Ff-287, Rac-(4-amino-7-fluoroimidazo[1,5-a]quinoxalin-8-yl)((4aS,10bS)-8-(difluoromethoxy)-2,3,4,4a,6,10b-hexahydro-1H-isochromeno[4,3-b]pyridin-1-yl)methanone] | < 100 nM
7 | Nc1nc2ccc(C(=O)N3CCC[C@@H]4OCc5cc(OC(F)F)ccc5[C@@H]43)cc2n2cncc12 (racemic) [Ff-288, Rac-(4-aminoimidazo[1,5-a]quinoxalin-8-yl)((4aS,10bS)-8-(difluoromethoxy)-2,3,4,4a,6,10b-hexahydro-1H-isochromeno[4,3-b]pyridin-1-yl)methanone] | < 100 nM
8 | Nc1nc2cc(F)c(C(=O)N3[C@@H](c4ccc(C(F)(F)F)cn4)CC[C@@H]4C[C@@H]43)cc2n2cncc12 (racemic) [Ff-293, Rac-(4-amino-7-fluoroimidazo[1,5-a]quinoxalin-8-yl)((1S,3R,6R)-3-(5-(trifluoromethyl)pyridin-2-yl)-2-azabicyclo[4.1.0]heptan-2-yl)methanone] | 100 to 1000 nM
9 | Nc1nc2cc(F)c(C(=O)N3CCC[C@@H]4OCc5cc(-c6ccn(C(F)(F)F)n6)ccc5[C@@H]43)cc2n2cncc12 (racemic) [Ff-294, Rac-(4-amino-7-fluoroimidazo[1,5-a]quinoxalin-8-yl)((4aS,10bS)-8-(1-(trifluoromethyl)-1H-pyrazol-3-yl)-2,3,4,4a,6,10b-hexahydro-1H-isochromeno[4,3-b]pyridin-1-yl)methanone] | < 100 nM
10 | Nc1nc2cc(F)c(C(=O)N3CCC[C@@H]4OCc5cc(-c6cnn(C(F)(F)F)c6)ccc5[C@@H]43)cc2n2cncc12 (racemic) [Ff-295, Rac-(4-amino-7-fluoroimidazo[1,5-a]quinoxalin-8-yl)((4aS,10bS)-8-(1-(trifluoromethyl)-1H-pyrazol-4-yl)-2,3,4,4a,6,10b-hexahydro-1H-isochromeno[4,3-b]pyridin-1-yl)methanone] | < 100 nM
